# In the supplement of paper PMC10307832:
# Experiments:
# Test in all cases: relative viability (nuclei count vs DMSO), 5 days (fraction); higher = more cells survive
# [1] = tested on: 201T
# Method in brief: (§1)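 Lung cancer cell lines in 1536-well plates got either a single drug or a fixed anchor-drug dose together with five library-drug doses (not always all listed) in √10 steps, by pin tool, on the day after seeding. Nuclei were counted after 5 days, and relative viability is the treated-to-vehicle ratio of nuclei counts. Values are medians of duplicate plates.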
# [2] = tested on: A-427
# Method in brief: as §1
# [3] = tested on: COR-L23
# Method in brief: as §1
# [4] = tested on: HARA
# Method in brief: as §1
# [5] = tested on: HCC-78
# Method in brief: as §1
# [6] = tested on: LCLC-103H
# Method in brief: as §1
# [7] = tested on: LCLC-97TM1
# Method in brief: as §1
# [8] = tested on: LK-2
# Method in brief: as §1
# [9] = tested on: LOU-NH91
# Method in brief: as §1
# [10] = tested on: LXF-289
# Method in brief: as §1
# [11] = tested on: NCI-H1650
# Method in brief: as §1
# [12] = tested on: NCI-H1651
# Method in brief: as §1
# [13] = tested on: NCI-H1793
# Method in brief: as §1
# [14] = tested on: NCI-H2347
# Method in brief: as §1
# [15] = tested on: NCI-H23
# Method in brief: as §1
# [16] = tested on: NCI-H2405
# Method in brief: as §1
# [17] = tested on: NCI-H520
# Method in brief: as §1
# [18] = tested on: NCI-H522
# Method in brief: as §1
# [19] = tested on: NCI-H647
# Method in brief: as §1
# [20] = tested on: NCI-H838
# Method in brief: as §1
# [21] = tested on: PC-3 [JPC-3]
# Method in brief: as §1
# [22] = tested on: RERF-LC-KJ
# Method in brief: as §1
# [23] = tested on: UMC-11
# Method in brief: as §1
smiles,measurement,setting,value
CN1CCN(CCOc2cc(OC3CCOCC3)c3c(Nc4c(Cl)ccc5c4OCO5)ncnc3c2)CC1 [Saracatinib] + CC(=O)c1c(C)c2cnc(Nc3ccc(N4CCNCC4)cn3)nc2n(C2CCCC2)c1=O [Palbociclib] (partner 0.5 µM),relative viability,[1]; first compound 0.02 µM,0.358
same,relative viability,[1]; first compound 0.2 µM,0.311
same,relative viability,[1]; first compound 0.6325 µM,0.323
same,relative viability,[1]; first compound 2 µM,0.26
same,relative viability,[2]; first compound 0.02 µM,0.531
same,relative viability,[2]; first compound 0.2 µM,0.457
same,relative viability,[2]; first compound 0.6325 µM,0.525
same,relative viability,[2]; first compound 2 µM,0.506
same,relative viability,[3]; first compound 0.02 µM,0.278
same,relative viability,[3]; first compound 0.2 µM,0.301
same,relative viability,[3]; first compound 0.6325 µM,0.243
same,relative viability,[3]; first compound 2 µM,0.287
same,relative viability,[4]; first compound 0.02 µM,0.234
same,relative viability,[4]; first compound 0.2 µM,0.208
same,relative viability,[4]; first compound 0.6325 µM,0.269
same,relative viability,[4]; first compound 2 µM,0.161
same,relative viability,[5]; first compound 0.02 µM,0.461
same,relative viability,[5]; first compound 0.2 µM,0.406
same,relative viability,[5]; first compound 0.6325 µM,0.45
same,relative viability,[5]; first compound 2 µM,0.342
same,relative viability,[6]; first compound 0.02 µM,0.498
same,relative viability,[6]; first compound 0.2 µM,0.389
same,relative viability,[6]; first compound 0.6325 µM,0.479
same,relative viability,[6]; first compound 2 µM,0.461
same,relative viability,[7]; first compound 0.02 µM,0.21
same,relative viability,[7]; first compound 0.2 µM,0.185
same,relative viability,[7]; first compound 0.6325 µM,0.281
same,relative viability,[7]; first compound 2 µM,0.175
same,relative viability,[8]; first compound 0.02 µM,0.496
same,relative viability,[8]; first compound 0.2 µM,0.405
same,relative viability,[8]; first compound 0.6325 µM,0.528
same,relative viability,[8]; first compound 2 µM,0.313
same,relative viability,[9]; first compound 0.02 µM,0.487
same,relative viability,[9]; first compound 0.2 µM,0.551
same,relative viability,[9]; first compound 0.6325 µM,0.569
same,relative viability,[9]; first compound 2 µM,0.49
same,relative viability,[10]; first compound 0.02 µM,0.621
same,relative viability,[10]; first compound 0.2 µM,0.582
same,relative viability,[10]; first compound 0.6325 µM,0.601
same,relative viability,[10]; first compound 2 µM,0.571
same,relative viability,[11]; first compound 0.02 µM,0.334
same,relative viability,[11]; first compound 0.2 µM,0.28
same,relative viability,[11]; first compound 0.6325 µM,0.267
same,relative viability,[11]; first compound 2 µM,0.159
same,relative viability,[12]; first compound 0.02 µM,0.587
same,relative viability,[12]; first compound 0.2 µM,0.478
same,relative viability,[12]; first compound 0.6325 µM,0.642
same,relative viability,[12]; first compound 2 µM,0.567
same,relative viability,[13]; first compound 0.02 µM,0.363
same,relative viability,[13]; first compound 0.2 µM,0.311
same,relative viability,[13]; first compound 0.6325 µM,0.299
same,relative viability,[13]; first compound 2 µM,0.278
same,relative viability,[14]; first compound 0.02 µM,0.468
same,relative viability,[14]; first compound 0.2 µM,0.397
same,relative viability,[14]; first compound 0.6325 µM,0.428
same,relative viability,[14]; first compound 2 µM,0.432
same,relative viability,[15]; first compound 0.02 µM,0.526
same,relative viability,[15]; first compound 0.6325 µM,0.573
same,relative viability,[15]; first compound 2 µM,0.403
same,relative viability,[16]; first compound 0.02 µM,0.567
same,relative viability,[16]; first compound 0.2 µM,0.45
same,relative viability,[16]; first compound 0.6325 µM,0.44
same,relative viability,[16]; first compound 2 µM,0.358
same,relative viability,[17]; first compound 0.02 µM,0.249
same,relative viability,[17]; first compound 0.2 µM,0.211
same,relative viability,[17]; first compound 0.6325 µM,0.214
same,relative viability,[17]; first compound 2 µM,0.156
same,relative viability,[18]; first compound 0.02 µM,0.914
same,relative viability,[18]; first compound 0.2 µM,0.802
same,relative viability,[18]; first compound 0.6325 µM,0.911
same,relative viability,[18]; first compound 2 µM,0.756
same,relative viability,[19]; first compound 0.02 µM,0.383
same,relative viability,[19]; first compound 0.2 µM,0.239
same,relative viability,[19]; first compound 0.6325 µM,0.347
same,relative viability,[19]; first compound 2 µM,0.265
same,relative viability,[20]; first compound 0.02 µM,0.224
same,relative viability,[20]; first compound 0.2 µM,0.215
same,relative viability,[20]; first compound 0.6325 µM,0.216
same,relative viability,[20]; first compound 2 µM,0.182
same,relative viability,[21]; first compound 0.02 µM,0.568
same,relative viability,[21]; first compound 0.2 µM,0.507
same,relative viability,[21]; first compound 0.6325 µM,0.532
same,relative viability,[21]; first compound 2 µM,0.561
same,relative viability,[22]; first compound 0.02 µM,1.05
same,relative viability,[22]; first compound 0.2 µM,1.05
same,relative viability,[22]; first compound 0.6325 µM,1.01
same,relative viability,[22]; first compound 2 µM,1.06
same,relative viability,[23]; first compound 0.02 µM,0.339
same,relative viability,[23]; first compound 0.2 µM,0.374
same,relative viability,[23]; first compound 0.6325 µM,0.38
same,relative viability,[23]; first compound 2 µM,0.309
